Structures can show the parent of a compound that is named as a salt. Where two headings read alike, the source gives them in different places.

One test addresses EGFR L858R/T790M (Homo sapiens (Human), UniProt P00533, L858R/T790M). Nature of the test: HTRF-based EGFR biochemical assay (L858R/T790M). Conditions: 100 μM ATP, enzyme 0.02 nM. The procedure: (§1) Example 25: HTRF-Based EGFR Biochemical Assays
(§2) EGFR biochemical activity measurements were carried out using the homogeneous time-resolved fluorescence (HTRF) assay (Cisbio), inhibitors and DMSO normalizations were first dispensed to empty black low-volume 384-well plates (Corning) with 0300 digital liquid dispenser (HP). All reactions were carried out at room temperature and solutions were added to plates with a Multidrop Combi Reagent Dispenser (ThermoFisher). The reaction mixture (10 μL final volume) contained 1 μM tyrosine kinase peptide-biotin substrate and mutant EGFR in a reaction buffer (50 mM HEPES pH 7.0, 5 mM MgCl2, 1 mM MnCl2, 0.01% BSA, 2 mM TCEP, 0.1 mM NaVO4). Enzyme concentrations were adjusted to accommodate varying kinase activities (L858R 0.1 nM, L858R/T790M 0.02 nM). Enzyme reaction solution (2× concentrations, 5 μL) was added to 384-well plates containing compounds and incubated for 30 mins. Enzyme reactions were initiated with the addition of 5 μL of ATP to a final concentration of 100 μM and reacted for 20 mins. Reactions were quenched with the addition of 10 μL of phospho-tyrosine antibody-Europium(III) cryptate (1-to-180 volume ratio) and Streptavidin-XL665 (46.7 nM) in EDTA-containing detection buffer, then incubated at room temperature for 1 hour, and read with a PHERAstar plate reader (excitation=337 nm, emission=620 nm and 665 nm).

Another test concerns the target EGFR L858R (Homo sapiens (Human), UniProt P00533, L858R). Kind of test: HTRF-based EGFR biochemical assay (L858R). The conditions noted are these: 100 μM ATP, enzyme 0.1 nM. The procedure: as §1, §2
Background: TR-FRET usually uses a lanthanide donor and a delayed reading to cut background.

Test [1] has as its system EGFR mutant L858R/T790M Ba/F3 cells. Nature of the test: Ba/F3 cell proliferation model (Cell Titer Glo), EGFR L858R/T790M. The class given is cell-based, murine. Conditions: 72 hours. From the text:
Example 26: Ba/F3 Cell Proliferation Models
The EGFR mutant L858R and L858R/T790M Ba/F3 cells have been previously described (Zhou, W., et al. Nature 462, 2009, 1070-1074). All cell lines were maintained in RPM 1640 (Cellgro; Mediatech Inc., Herndon. CA) supplemented with 10% FBS, 100 units/mL penicillin, 100 units/mL streptomycin. The EGFR I941R mutation was introduced via site directed mutagenesis using the Quick Change Site-Directed Mutagenesis kit (Stratagene; La Jolla, CA) according to the manufacturer's instructions. All constructs were confirmed by DNA sequencing. The constructs were shuttled into the retroviral vector JP1540 using the Cre-recombination system (Agilent Technologies, Santa Clara, CA). Ba/F3 cells were then infected with retrovirus per standard protocols, as described previously (Zhou, et al, Nature 2009). Stable clones were obtained by selection in puromycin (2 μg/ml).
Growth and inhibition of growth was assessed by the Cell Titer Glo® assay (Promega, Madison, WI) and was performed according to the manufacturer's instructions. The Cell Titer Glo® assay is a luminescence-based method used to determine the number of viable cells based on quantitation of the ATP present, which is directly proportional to the amount of metabolically active cells present. Ba/F3 cells of different EGFR genotypes were exposed to compounds as a single agent or in combination with 1 μg/mL cetuximab for 72 hours and the number of cells used per experiment was determined empirically as has been previously established (Zhou, et al., Nature 2009). All experimental points were set up in triplicates in 384-well plates and all experiments were repeated at least three times. […] The curves were fitted using a non-linear regression model with a sigmoidal dose response.
(In general: In ATP-based viability assays light output follows the ATP content of the culture.)

The mark [2] stands for this setting: Mus musculus, BaF3, single agent, read-out: Cell IC50 BaF3 EGFR L858R/T790M.
Where [3] appears, read: in combination with 1 μg/mL cetuximab, read-out: Cell IC50 BaF3 EGFR L858R/T790M (+cetux.).

Sequence of EGFR L858R (P00533 25-1210 L858R): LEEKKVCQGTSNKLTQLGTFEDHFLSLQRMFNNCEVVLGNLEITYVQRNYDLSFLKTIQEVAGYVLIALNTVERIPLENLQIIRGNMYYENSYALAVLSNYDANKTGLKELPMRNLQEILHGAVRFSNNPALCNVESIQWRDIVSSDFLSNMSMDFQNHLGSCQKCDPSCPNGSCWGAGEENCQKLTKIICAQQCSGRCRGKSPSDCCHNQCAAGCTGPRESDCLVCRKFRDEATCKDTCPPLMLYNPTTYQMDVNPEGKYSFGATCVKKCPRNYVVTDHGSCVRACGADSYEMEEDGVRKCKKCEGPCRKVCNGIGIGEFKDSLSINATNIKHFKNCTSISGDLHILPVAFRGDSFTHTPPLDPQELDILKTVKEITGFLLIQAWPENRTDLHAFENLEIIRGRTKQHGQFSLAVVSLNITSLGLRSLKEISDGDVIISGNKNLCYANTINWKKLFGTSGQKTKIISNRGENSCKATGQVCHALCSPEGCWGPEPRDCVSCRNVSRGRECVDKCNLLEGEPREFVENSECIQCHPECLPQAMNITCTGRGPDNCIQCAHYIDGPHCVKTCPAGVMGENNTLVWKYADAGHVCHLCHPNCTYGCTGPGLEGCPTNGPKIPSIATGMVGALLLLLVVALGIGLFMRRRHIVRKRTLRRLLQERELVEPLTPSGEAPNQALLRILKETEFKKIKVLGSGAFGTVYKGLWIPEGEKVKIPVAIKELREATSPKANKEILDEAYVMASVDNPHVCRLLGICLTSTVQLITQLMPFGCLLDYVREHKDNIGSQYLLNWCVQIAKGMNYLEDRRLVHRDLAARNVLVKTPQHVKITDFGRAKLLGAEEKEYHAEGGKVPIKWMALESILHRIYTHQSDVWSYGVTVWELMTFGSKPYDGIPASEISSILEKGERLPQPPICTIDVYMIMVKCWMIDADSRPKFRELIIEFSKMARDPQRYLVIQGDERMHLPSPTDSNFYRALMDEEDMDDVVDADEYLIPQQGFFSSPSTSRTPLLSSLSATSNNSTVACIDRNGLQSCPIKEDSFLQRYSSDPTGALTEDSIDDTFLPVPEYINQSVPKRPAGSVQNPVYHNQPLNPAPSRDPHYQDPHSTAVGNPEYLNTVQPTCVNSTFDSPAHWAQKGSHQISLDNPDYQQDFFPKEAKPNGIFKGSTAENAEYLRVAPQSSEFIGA
Sequence of EGFR L858R/T790M (P00533 25-1210 T790M/L858R): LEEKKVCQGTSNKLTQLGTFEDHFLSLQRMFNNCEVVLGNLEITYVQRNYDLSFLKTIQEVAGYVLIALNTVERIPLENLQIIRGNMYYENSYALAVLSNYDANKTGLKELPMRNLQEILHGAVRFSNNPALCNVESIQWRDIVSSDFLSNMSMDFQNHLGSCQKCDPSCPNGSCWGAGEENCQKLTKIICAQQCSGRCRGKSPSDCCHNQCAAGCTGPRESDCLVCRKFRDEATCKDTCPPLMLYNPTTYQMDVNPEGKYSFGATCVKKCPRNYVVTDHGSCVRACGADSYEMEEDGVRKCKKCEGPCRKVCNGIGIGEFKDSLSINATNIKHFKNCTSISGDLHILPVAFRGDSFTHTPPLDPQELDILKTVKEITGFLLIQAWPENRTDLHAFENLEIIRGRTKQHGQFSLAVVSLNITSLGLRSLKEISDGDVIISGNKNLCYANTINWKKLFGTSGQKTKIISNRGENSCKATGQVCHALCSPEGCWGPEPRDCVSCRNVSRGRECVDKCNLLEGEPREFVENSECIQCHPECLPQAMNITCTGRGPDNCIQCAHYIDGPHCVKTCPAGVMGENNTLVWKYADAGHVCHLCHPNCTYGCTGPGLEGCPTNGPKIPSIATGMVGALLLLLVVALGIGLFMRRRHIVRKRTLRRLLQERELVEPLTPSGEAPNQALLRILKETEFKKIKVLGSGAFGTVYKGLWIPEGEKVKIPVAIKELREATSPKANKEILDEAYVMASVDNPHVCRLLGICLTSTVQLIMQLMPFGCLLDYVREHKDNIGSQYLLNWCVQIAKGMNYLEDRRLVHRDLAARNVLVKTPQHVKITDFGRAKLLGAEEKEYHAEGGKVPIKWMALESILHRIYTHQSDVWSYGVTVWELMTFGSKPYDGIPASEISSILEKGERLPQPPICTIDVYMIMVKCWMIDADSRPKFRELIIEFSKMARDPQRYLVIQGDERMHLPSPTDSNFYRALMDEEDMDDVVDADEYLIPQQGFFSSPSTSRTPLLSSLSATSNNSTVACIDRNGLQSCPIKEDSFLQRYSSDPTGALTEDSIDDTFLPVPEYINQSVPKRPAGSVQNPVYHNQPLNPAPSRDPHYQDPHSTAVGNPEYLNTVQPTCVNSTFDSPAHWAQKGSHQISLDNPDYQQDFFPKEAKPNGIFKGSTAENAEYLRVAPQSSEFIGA

`COc1cc2cn(C(c3nc4ccccc4[nH]3)c3cc(F)ccc3O)nc2cc1-c1ccc(C2CCN(C)CC2)cc1` (centres unmarked) [Compound 099, 2-[1H-Benzimidazol-2-yl-[5-methoxy-6-[4-(1-methyl-4-piperidyl)phenyl]indazol-2-yl]methyl]-4-fluoro-phenol]: the IC50 at EGFR L858R/T790M amounted to 8 nM; against EGFR L858R, 10 nM.
For `Cc1cnc(C(c2cc(F)ccc2O)N2Cc3ccc(-c4ccc(C5CCN(C)CC5)cc4)c(F)c3C2=O)[nH]1` (centres unmarked) [Compound 093, 7-Fluoro-2-[(5-fluoro-2-hydroxy-phenyl)-(5-methyl-1H-imidazol-2-yl)methyl]-6-[4-(1-methyl-4-piperidyl)phenyl]isoindolin-1-one], the IC50 against EGFR L858R/T790M was determined as 4 nM; at EGFR L858R, 3 nM.
Taken in the same sequence, the figures for `Cc1c[nH]c([C@H](c2cc(F)ccc2O)N2Cc3ccc(-c4ccc(C5CCN(C)CC5)cc4)c(F)c3C2=O)n1` (single isomer, unassigned) [Compound 095] were 59 nM and 92 nM.
Taken in the same sequence, the figures for `Cc1cc2cn(C(c3nc4ccccc4[nH]3)c3cc(F)ccc3O)nc2cc1-c1ccc(C2CCN(C)CC2)cc1` (centres unmarked) [Compound 098, 2-[1H-Benzimidazol-2-yl-[5-methyl-6-[4-(1-methyl-4-piperidyl)phenyl]-indazol-2-yl]methyl]-4-fluoro-phenol; dihydrochloride] were 4 nM and 6 nM.
As for `[2H]C(c1nc2ccccc2[nH]1)(c1cc(F)ccc1O)n1ccc2cc(-c3ccc(C4CCN(C)CC4)cc3)cc(F)c2c1=O` (centres unmarked) [Compound 113, 2-[1H-Benzimidazol-2-yl-deuterio-(5-fluoro-2-hydroxy-phenyl)methyl]-8-fluoro-6-[4-(1-methyl-4-piperidyl)phenyl]isoquinolin-1-one], the IC50 against EGFR L858R/T790M is 4 nM; on EGFR L858R, 14 nM.
On to `CN1CCC(c2ccc(-c3ccc4cn(C(c5nc6c(F)cccc6[nH]5)c5cc(F)ccc5O)nc4c3F)cc2)CC1` (centres unmarked) [Compound 101, 4-Fluoro-2-((4-fluoro-1H-benzo[d]-imidazol-2-yl)(7-fluoro-6-(4-(1-methylpiperidin-4-yl)phenyl)-2H-indazol-2-yl)methyl)phenol; trifluoroacetate], for which the results for the IC50 against EGFR L858R/T790M and on EGFR L858R were 0.8 nM and 4 nM, respectively.
As to `CN1CCC(c2ccc(-c3ccc4c(c3)C(=O)N(C(c3nc5ccccc5[nH]3)c3cccc(Cl)c3O)C4)cc2)CC1` (centres unmarked) [Compound 043, 2-[1H-benzimidazol-2-yl-(3-chloro-2-hydroxy-phenyl)-methyl]-6-[4-(1-methyl-4-piperidyl)phenyl]isoindolin-1-one; dihydrochloride], the IC50 in test [1] (setting [2]) was 4940 nM; in test [1] (setting [3]) it was 580 nM.
As to `CN1CCC(c2ccc(-c3cc4nn(C(c5nc6ccccc6[nH]5)c5cc(F)ccc5O)cc4cc3O)cc2)CC1` (centres unmarked) [Compound 097, 2-[1H-Benzimidazol-2-yl-(5-fluoro-2-hydroxy-phenyl)methyl]-6-[4-(1-methyl-4-piperidyl)phenyl]indazol-5-ol], the IC50 against EGFR L858R/T790M came to 36 nM; against EGFR L858R it was 16 nM.
Regarding `CN1CCC(c2ccc(-c3ccc4c(c3)C(=O)N([C@@H](c3nc5ccccc5[nH]3)c3cc(F)ccc3O)C4)cc2)CC1` (single isomer, unassigned) [Compound 038], the figures for the IC50 against EGFR L858R/T790M and against EGFR L858R were 6 nM and 18 nM, respectively.
For `Cc1c[nH]c([C@H](c2cc(F)ccc2O)N2Cc3ccc(-c4ccc(C5CCN(C)CC5)cc4)cc3C2=O)n1` (single isomer, unassigned) [Compound 105], the IC50 against EGFR L858R/T790M came to 49 nM; at EGFR L858R, 65 nM.
For `CN1CCC(c2ccc(-c3ccc4c(=O)n([C@@H](c5nc6ccccc6[nH]5)c5cc(F)ccc5O)ccc4c3)cc2)CC1` (single isomer, unassigned) [Compound 114], the IC50 at EGFR L858R/T790M turned out to be 0.9 nM; against EGFR L858R it was 2 nM.
For `CN1CCC(c2ccc(-c3cc(F)c4c(=O)n([C@H](c5nc6ccccc6[nH]5)c5cc(F)ccc5O)ccc4c3)cc2)CC1` (single isomer, unassigned) [Compound 117, 2-[1H-Benzimidazol-2-yl-(5-fluoro-2-hydroxy-phenyl)methyl-8-fluoro-6-[3-fluoro-4-(1-methyl-4-piperidyl)phenyl]isoquinolin-1-one; dihydrochloride], the figures for the IC50 against EGFR L858R/T790M (dihydrochloride) and at EGFR L858R (dihydrochloride) were 81 nM and > 100 nM, respectively.
With `CN1CCC(c2ccc(-c3ccc4c(=O)n([C@H](c5nc6ccccc6[nH]5)c5cc(F)ccc5O)ccc4c3)cc2)CC1` (single isomer, unassigned) [Compound 068], the values for the IC50 on EGFR L858R/T790M and against EGFR L858R were 166 nM and 756 nM, respectively.
Turning to `CN1CCC(c2ccc(-c3ccc4c(=O)n([C@@H](c5nc6ccccc6[nH]5)c5cc(F)ccc5O)ccc4c3)cc2)CC1` (single isomer, unassigned) [Compound 067], the results for the IC50 against EGFR L858R/T790M and against EGFR L858R were 4 nM and 11 nM, respectively.
On to `[2H]C(c1nc2ccccc2[nH]1)(c1cc(F)ccc1O)n1ccc2cc(-c3ccc(C4CCN(C)CC4)cc3)ccc2c1=O` (centres unmarked) [Compound 112, 2-[1H-Benzimidazol-2-yl-deuterio-(5-fluoro-2-hydroxy-phenyl)methyl]-6-[4-(1-methyl-4-piperidyl)phenyl]isoquinolin-1-one], for which the IC50 came to 2 nM on EGFR L858R/T790M and 3 nM against EGFR L858R.
On to `CN1CCC(c2ccc(-c3ccc4c(=O)n([C@H](c5nc6ccccc6[nH]5)c5cc(F)ccc5O)ccc4c3)cc2)CC1` (single isomer, unassigned) [Compound 115], for which the IC50 at EGFR L858R/T790M turned out to be 157 nM; on EGFR L858R, 132 nM.
For the compound `CN1CCC(c2ccc(-c3cc(F)c4c(=O)n([C@H](c5nc6ccccc6[nH]5)c5cc(F)ccc5O)ccc4c3)cc2)CC1` (single isomer, unassigned) [Compound 066], the IC50 was determined as 3 nM against EGFR L858R/T790M and 14 nM on EGFR L858R.
Turning to `CN1CCC(c2ccc(-c3ccc4c(n3)C(=O)N([C@H](c3nc5ccccc5[nH]3)c3cc(F)ccc3O)C4)cc2)CC1` (single isomer, unassigned) [Compound 107], the IC50 came out at 17 nM against EGFR L858R/T790M and 71 nM at EGFR L858R.
With `O=C1c2cc(-c3ccc(N4CCNCC4)cc3)ccc2CN1C(c1nc2ccccc2[nH]1)c1cc(F)ccc1O` (centres unmarked) [Compound 021, 2-[1H-Benzimidazol-2-yl-(5-fluoro-2-hydroxy-phenyl)methyl]-6-(4-piperazin-1-yiphenyl)isoindolin-1-one;hydrochioride], the IC50 was found to be 1650 nM in test [1] (setting [2]) and 20 nM in test [1] (setting [3]).
As for `Cc1c(-c2ccc(C3CCN(C)CC3)cc2)ccc2cn(C(c3nc4ccccc4[nH]3)c3cc(F)ccc3O)nc12` (centres unmarked) [Compound 096, 2-[1H-Benzimidazol-2-yl-[7-methyl-6-[4-(1-methyl-4-piperidyl)phenyl]indazol-2-yl]methyl]-4-fluoro-phenol; dihydrochloride], the results for the IC50 at EGFR L858R/T790M and on EGFR L858R were 0.8 nM and 3 nM, respectively.
For the compound `[2H][C@@](c1nc2ccccc2[nH]1)(c1cc(F)ccc1O)N1Cc2ccc(-c3ccc(C4CCN(C)CC4)cc3)cc2C1=O` (single isomer, unassigned) [Compound 037], the IC50 in test [1] (setting [2]) came out at 160 nM; in test [1] (setting [3]), 4 nM.
Consider `[2H][C@](c1nc2ccccc2[nH]1)(c1cc(F)ccc1O)N1Cc2ccc(-c3ccc(C4CCN(C)CC4)cc3)cc2C1=O` (single isomer, unassigned) [Compound 038], for which the IC50 turned out to be 930 nM in test [1] (setting [2]) and 41 nM in test [1] (setting [3]).

These data come from patent publication US12391671B2, “Allosteric EGFR inhibitors and methods of use thereof” (Dana-Farber Cancer Institute, Inc., priority 2019, dated 2025).
